Results reported in US20090214507A1, “METHOD OF TREATING PREVENTING, INHIBITING OR REDUCING DAMAGE TO CARDIAC TISSUE” (RegeneRx Biopharmaceuticals, Inc., priority 2004, published 2009).

Legend:
[1] = test system: myocardial infarction in adult mice; experiment: myocardial infarction by coronary artery ligation, echocardiography and histology; type: in vivo, mouse
Description: Because of thymosin β4's effects on survival and migration of cardiomyocytes cultured in vitro and phosphorylation of Akt, it was tested whether thymosin β4 might aid in cardiac repair in vivo after myocardial damage. Myocardial infarctions in fifty-eight adult mice were created by coronary artery ligation and treated half with systemic, intracardiac, or systemic plus intracardiac thymosin β4 immediately after ligation and the other half with PBS. Intracardiac injections were done with collagen (control) or collagen mixed with thymosin β4. All forty-five mice that survived two weeks later were interrogated for cardiac function by random-blind ultrasonography at 2 and 4 weeks after infarction by multiple measurements of cardiac contraction. […] Control cardiac injections were performed with the same collagen vehicle making it unlikely that an endogenous reaction to the injection contributed to the cardiac recovery.
To determine the manner in which […] improved cardiac function, multiple serial histologic sections of hearts treated with or without thymosin β4 were examined. […] TUNEL positive cells that were also myocytes were rare in the thymosin β4 group but abundant in the control hearts. […] Thus, the decreased scar volume and preserved function of thymosin β4 treated mice were likely due to early preservation of myocardium after infarction through thymosin β4's effects on survival of cardiomyocytes.
Embryonic or adult cardiac tissue was embedded in paraffin and sections used for immunohistochemistry. […] Adult hearts were sectioned at ten equivalent levels from the base of the heart to the apex. Serial sections were used for trichrome sections and reaction with sarcomeric a-actinin, c-kit, Sca-1, Abcg2, and BrdU antibodies and for TUNEL assay (Intergen Company #S7111).
(§1) Myocardial infarction was produced in fifty-eight male C57BL/6J mice at 16 weeks of age (25-30 g) by ligation of the left anterior descending coronary artery as previously described. Twenty-nine of the ligated mice received thymosin β4 treatment immediately following ligation and the remaining twenty-nine received PBS injections. Treatment was given intracardiac with thymosin β4 (200 ng in 10 ul collagen) or with 10 ul of collagen; intraperitoneally with thymosin β4 (150 μg in 300 μl PBS) or with […]; or by both intracardiac and intraperitoneal injections. Intraperitoneal injections were given every three days until mice were sacrificed. Doses were based on previous studies of thymosin β4 biodistribution. Hearts were removed, weighed and fixed for histologic sectioning. Additional mice were operated on in a similar fashion for studies 0.5, 1, 3, 6 and 11 days after ligation.
Echocardiograms to assess systolic function were performed using M-mode and 2-dimensional measurements as described previously. The measurements represented the average of six selected cardiac cycles from at least two separate scans performed in random-blind fashion with papillary muscles used as a point of reference for consistency in level of scan. End diastole was defined as the maximal left ventricle (LV) diastolic dimension and end systole was defined as the peak of posterior wall motion. Single outliers in each group were omitted for statistical analysis. Fractional shortening (FS), a surrogate of systolic function, was calculated from LV dimensions as follows: FS=EDD−ESD/EDD×100%. Ejection fraction (EF) was calculated from two-dimensional images. EDD, end diastolic dimension; ESD, end systolic dimension.
Scar volume was calculated using six sections through the heart of each mouse using Openlab 3.03 software (Improvision) similar to previously described. Percent area of collagen deposition was measured on each section in blinded fashion and averaged for each mouse.

[2] = molecular target: T1, PINCH (Mus musculus, UniProt Q99JW4); experiment: phage display ELISA and coimmunoprecipitation with PINCH; type: binding; settings: ELISA; coimmunoprecipitation in transfected cultured cells
T1 construct: made in house; host or cells: T7 phage amplified in E. coli BLT5615
Text: (§2) To investigate the potential mechanisms through which thymosin β4 might be influencing cell migration and survival events, thymosin β4 interacting proteins were searched. The amino-terminus of thymosin β4 was fused with affi-gel beads resulting in exposure of the carboxy-terminus that allowed identification of previously unknown interacting proteins but prohibited association with actin. An E9.5-12.5 mouse heart T7 phage cDNA library was synthesized and screened by phage display and thymosin β4-interacting clones were enriched and confirmed by ELISA. […] PINCH and integrin linked kinase (ILK) interact directly with one another and indirectly with the actin cytoskeleton as part of a larger complex involved in cell-extracellular matrix interactions known as the focal adhesion complex. PINCH and ILK are required for cell motility and for cell survival, in part by promoting phosphorylation of the serine-threonine kinase Akt/protein kinase B, a central kinase in survival and growth signaling pathways. […] The PINCH interaction with thymosin β4 mapped to the fourth and fifth LIM domains of PINCH while the amino terminal ankryin domain of ILK was sufficient for thymosin β4 interaction.
300 ul of Affi-Gel 15 (Bio-Rad Laboratories) was coupled with 12 ug of synthesized thymosin β4 protein (RegeneRx) following the manufacturers manual, likely via amino terminal lysine residues. […]

[3] = test system: embryonic heart explants; experiment: embryonic heart explant collagen gel migration assay; type: cell-based, mouse
Description: To test the effects of secreted thymosin β4 on cardiac cell migration, an embryonic heart explant system designed to assay cell migration and transformation events on a three-dimensional collagen gel was utilized. In this assay, explants of adjacent embryonic myocardium and endocardium from valve-forming regions were placed on a collagen gel with the endocardium adjacent to the collagen.
(§3) To test the response of post-natal cardiomyocytes, primary rat neonatal cardiomyocytes were cultured on laminin-coated glass and treated the cells with phosphate buffered saline (PBS) or thymosin β4.
To determine if activation of ILK was necessary for the observed effects of thymosin β4, a well-described ILK inhibitor, wortmannin, was employed, which inhibits ILK's upstream kinase, phosphatidylinositol 3-kinase (PI3-kinase). Using myocardial cell migration and beating frequency as assays for thymosin β4 activity, embryonic heart explants were cultured as described above in the presence of thymosin β4 with or without wortmannin.
Outflow tract was dissected from E11.5 wild type mouse embryos and placed on collagen matrices as previously described. After 10 hours of attachment explants were incubated in 30 ng/300 μl thymosin β4 in PBS, PBS alone or thymosin β4 and 100 nM wortmannin. Cultures were carried out for 3-9 days at 37° C. 5% CO2 and fixed in 4% paraformaldehyde in PBS for 10 min at RT. Cells were counted for quantification of migration and distance using at least three separate explants under each condition for endothelial migration and eight separate explants for myocardial migration.
Paraformaldehyde-fixed explants were permeabilized for 10 min at RT with Permeabilize solution (10 mM PIPES pH6.8; 50 mMNaC1; 0.5% Triton X-100; 300 mM Sucrose; 3 mM MgC12) and rinsed with PBS 2×5 min at RT. After a series of blocking and rinsing steps, detection antibodies were used and explants rinsed and incubated with Equilibration buffer (Anti-Fade kit) 10 min at room temperature. Explants were scooped to a glass microscope slide, covered, and examined by fluorescein microscopy. TUNEL assay was performed using ApopTag Plus Fluorescein In Situ Apoptosis detection kit (Intergen Company #S7111) as recommended.

[4] = test system: ILK / Akt; experiment: western blot of heart lysates after coronary ligation; type: in vivo, mouse
Description: Because thymosin β4 upregulates ILK activity and Akt phosphorylation in cultured cells, the effects on these kinases in vivo were tested. […] Total Akt protein was not increased.
as §1

[5] = test system: ILK / Akt; experiment: ILK localization, expression and activation (immunocytochemistry, Western); type: cell-based
Description: Because recruitment of ILK to the focal adhesion complex is important for its activation, the effects of thymosin β4 on ILK localization and expression were assayed. […] Because thymosin β4 sequesters the pool of G-actin monomers, the effects on ILK activation were dependent on thymosin β4's role in regulating the balance between polymerized F-actin and monomeric G-actin were tested.

[6] = molecular target: T2, integrin linked kinase (ILK) (Homo sapiens, UniProt Q13418); experiment: coimmunoprecipitation with ILK; type: binding; settings: coimmunoprecipitation in transfected cultured cells
T2 construct: expressed in transfected cells; host or cells: Cos and 10T1/2 cells
T2 sequence (Q13418 1-452): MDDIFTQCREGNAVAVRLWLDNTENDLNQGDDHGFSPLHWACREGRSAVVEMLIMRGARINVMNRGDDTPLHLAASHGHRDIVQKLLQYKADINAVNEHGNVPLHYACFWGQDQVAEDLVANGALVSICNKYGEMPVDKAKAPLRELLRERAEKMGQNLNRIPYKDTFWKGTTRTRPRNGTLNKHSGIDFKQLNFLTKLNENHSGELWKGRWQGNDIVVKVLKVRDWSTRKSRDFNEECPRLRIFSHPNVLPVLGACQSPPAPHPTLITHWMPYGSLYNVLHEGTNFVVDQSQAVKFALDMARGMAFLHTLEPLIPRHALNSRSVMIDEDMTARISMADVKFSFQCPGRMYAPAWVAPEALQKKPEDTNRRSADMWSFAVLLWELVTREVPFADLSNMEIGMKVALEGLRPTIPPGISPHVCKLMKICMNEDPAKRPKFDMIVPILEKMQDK
Text: as §2
Cos and 10 T1/2 cells were transfected with thymosin β4, PINCH and/or ILK and lysates precipitated with antibodies to each as previously described. […]

[7] = test system: cardiac endothelial cells; experiment: collagen gel assay, transformation of cardiac endothelial cells to mesenchymal cells; type: cell-based; settings: Tβ4 at physiological concentrations
Description: Synthetic Tβ4 and an antibody to Tβ4 was provided by RegeneRx Biopharmaceuticals, Inc. (3 Bethesda Metro Center, Suite 700, Bethesda, Md. 20814) and were tested in a collagen gel assay to determine their effects on the Transformation of cardiac endothelial cells to mesenchymal cells. It is well established that development of heart valves and other cardiac tissue are formed by epithelial-mesenchymal transformation and that defects in this process can cause serious cardiovascular malformation and injury during development and throughout life. […] Transformation of atrioventricular endocardium into invasive mesenchyme is an aspect of the formation and maintenance of normal cardiac tissue and in the formation of heart valves.

[8] = test system: primary rat neonatal cardiomyocytes; experiment: primary neonatal cardiomyocyte culture on laminin-coated glass; type: cell-based
Description: as §3
Primary culture of neonatal cardiomyocytes typically survived for approximately one to two weeks with some cells beating up to two weeks when grown on laminin-coated slides in our laboratory. […] In addition, the rate of beating was consistently faster in thymosin β4-treated neonatal cardiomyocytes (95 vs. 50 beats per minute, p<0.02), indicating either a change in cell-cell communication or more vigorous cardiomyocytes.

[9] = four weeks after infarction, versus control

T1 sequence (Q99JW4 whole entry): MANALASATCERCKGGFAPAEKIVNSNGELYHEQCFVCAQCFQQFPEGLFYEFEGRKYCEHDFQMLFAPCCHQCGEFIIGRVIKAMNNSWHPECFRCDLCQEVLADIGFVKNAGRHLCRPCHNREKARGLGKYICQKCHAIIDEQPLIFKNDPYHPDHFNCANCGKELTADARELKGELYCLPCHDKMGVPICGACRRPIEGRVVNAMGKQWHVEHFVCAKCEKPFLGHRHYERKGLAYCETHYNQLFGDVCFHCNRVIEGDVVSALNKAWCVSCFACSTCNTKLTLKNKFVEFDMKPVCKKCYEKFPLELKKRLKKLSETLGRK

## thymosin β4
[1]; EDD and ESD significantly higher in control group
  cardiac dilation after infarction (EDD and ESD): decreased cardiac dilation
[1]; four weeks after infarction, n=23, 95% confidence interval, control 28.2
  mean ejection fraction: 57.7+/−3.2%
[1]; four weeks after infarction, n=23, 95% confidence intervals, control 23.2
  mean left ventricle fractional shortening: 37.2+/−1.8%
[1]; [9]
  improvement in cardiac fractional shortening: greater than 60%
  improvement in ejection fraction: > 100%
[1]; mouse, in vivo, ip
  degree of improvement, systemic (intraperitoneal) versus local intracardiac administration: not statistically different
[1]; six levels of sections through left ventricle, subset of mice, p<0.05
  scar volume: significant reduction
[1]; three days after infarction, intracardiac treatment, n=4, 95% confidence interval, control 28.8
  left ventricle fractional shortening: 39.2+/−2.34%
[1]; three days after infarction, intracardiac treatment, control 44.7
  ejection fraction: 64.2+/−6.69%
[1]; three levels of section, all treated mice
  size of scar (trichrome stain): reduced
[1]; three, six, eleven or fourteen days after coronary ligation
  cardiomyocyte proliferation or death: did not detect significant cardiomyocyte proliferation or death
[1]; treated versus untreated hearts
  number of c-kit, Sca-1 or Abcg2 positive cardiomyocytes: no detection of any differences
[1]; twenty-four hours after ligation
  cardiomyocyte cell death by TUNEL assay: striking decrease in cell death
[2]
  interaction with PINCH: interacted with thymosin β4 in the absence of actin
[3]; E11.5 explants, compared to PBS, p<0.01
  number of migrating endothelial cells: increased number of migrating endothelial cells
[3]; compared to control cells
  cell death (TUNEL assay) in migrated cells: No significant difference
  proliferative rate (phosho-histone H3 immunostaining) in migrated cells: No significant difference
[3]; thymosin β4 added to primary explants on collagen gel
  migration of myocardial cells away from the explant: a large number of spontaneously beating, cardiac muscle actin-positive cells had migrated away from the explant
[4]
  total Akt protein: not increased
[4]; compared with PBS treated mice
  level of ILK protein in heart lysates: increased
[4]; phospho-specific antibodies
  amount of phosphorylated Akt-5473: elevation
[5]; C2C12 cells
  ILK protein levels (Western analysis): modest increase
  total Akt protein: unchanged
[5]; C2C12 cells, phospho-specific antibody
  phosphorylation of Akt (serine 473): increased phosphorylation
[5]; embryonic heart explants or C2C12 myoblasts, 10 ng/100 ul synthetic protein or expressing plasmid
  ILK detection by immunocytochemistry: markedly enhanced around the cell edges
[6]
  interaction with ILK: weaker than with PINCH
[7]
  transformation of endocardial cells to mesenchymal cells: markedly enhances
[8]; compared to control, p<0.05
  migrational distance of neonatal cardiomyocytes: significantly increased
[8]; control cultures survive approximately one to two weeks
  survival in culture, rhythmically contracting myocytes visible: up to 28 days
[8]; vs. 50 in control, p<0.02
  rate of beating: 95 beats per minute
